In US10493046B2, “5-hydroxytryptamine 1B receptor-stimulating agent for use as a promoter of satellite cells self-renewal and/or differentiation” (INSTITUT PASTEUR, priority 2015, dated 2019):

Tests used:
Mdx mice = Mdx mice (Duchenne muscular dystrophy model), muscle histology; format: in vivo, mouse
Method: (§1) Tibialis anterior (TA) was carefully dissected and snap frozen in liquid-nitrogen-cooled isopentane for a few minutes and stored at −80° C. prior to cryosectioning (10 μm sections). Sections were kept at room temperature overnight before staining. Sections were then rehydrated in PBS for 10 minutes and fixed in 10% formalin for 3 minutes. The sections were then routinely stained with haematoxylin and eosin (HE) using an automated stain machine or manually with red sirius.
(§2) Immunostaining was performed on cryosections fixed with 4% paraformaldehyde (PFA EMS#15710) in cold PBS, permeabilized with 0.5% Triton X-100 20 min at room temperature, washed, and blocked with 10% BSA for 30 min. Sections were incubated with primary antibodies overnight at 4° C. (see Table 1 below) and with Alexa-conjugated secondary antibodies 1/250 and Hoechst for 45 minutes. Sections were then analysed using an automated axioscan (Zeiss) or inverted Observer.Z1 Apotome (Zeiss). For apoptosis assessment, cells were collected in 2% serum, spun on polyD-lysine (Sigma-Aldrich#P6407), and immediately fixed with PFA 4%.
The fiber size was also overall bigger in Mdx treated-animals (4.241±0.9 pixels in treated vs. 3.192±0.3 in placebo p=0.051) (FIG. 8b). […] The number of vessels increased in the treated mice (1459±327 vessels per mm^2) when compared to the placebo (942.4±113 vessels […], p=0.008) (FIG. 8e). […] This observation is in line with the decreased infiltration of inflammatory cells observed in the muscle (9.6±3.7 Gr1+ cells observed per section in the placebo vs. 4±2.4 Gr1+ cells in the treated mice p=0.04) (FIG. 8i).

satellite cells [1] = test: Satellite cells in vitro in plasma of treated mice (live videomicroscopy, immunostaining); format: cell-based, mouse; conditions: for Reserve cells (quiescent Pax7 positive cells) 14 days post-plating: plasma from fluoxetine-treated animals
Method: Muscle dissection was done as previously described in cold DMEM. Muscles were then chopped with small scissors and put in a 50 ml Falcon tube with collagenase 0.1% and trypsin 0.25% at 37° C. with gentle agitation. After 20 minutes, the supernatant was collected in 20% serum placed on ice, and the collagenase/trypsin solution was added to continue the digestion. Once muscle was completely digested, the solution was filtrated using 40 μm cell strainers. Satellite cells were cultured in 1:1 DMEM-Glutamax (Gibco#41965-039):MCDB201 (Sigma#M6770) containing 20% serum FBS (Biowest S1860). Medium was filtered using 0.22 μm filters. Cells were plated on Matrigel coating (BD Biosciences#354234) and kept in an incubator (37° C., 5% CO2). […] The thus-obtained supernatant replaced FBS in the culture medium; the rest of the medium was unchanged.
Cells isolated by FACS were plated overnight on a 24-well glass bottom plate (P24G-0-10-F; MatTek) coated with matrigel (BD Biosciences#354234) and placed in an incubator in pre-equilibrated medium (1:1 DMEM Glutamax: MCDB [Sigma-Aldrich], 20% FCS (Biowest S1860). The plate was then incubated at 37° C., 5% CO2 (Zeiss, Pecon). A Zeiss Observer.Z1 connected with a LCI PInN 10×/0.8 W phaseII objective and AxioCam camera piloted with AxioVision was used. Cells were filmed for up to 5 days, and images were taken every 30 min with brightfield and phase filters and MozaiX 3×3 (Zeiss). Raw data were transformed and presented as a video.
Those results were confirmed in vitro (FIG. 7a). […] This difference was lost when SC were plated with GR127935 (p=0.4) (FIG. 7e). The faster exit of quiescence and higher division rates were also lost when adding GR127935 in vitro (FIGS. 7f,g). The effects of the plasma from fluoxetine-treated animals were persistent when adding MDL100907 (FIGS. 7b-g).

Tibialis anterior = test: Muscle regeneration after notexin injury of tibialis anterior; format: in vivo, mouse
Method: Animals were anesthetized with ketamine (Imalgene1000 100 mg/Kg Merial) and Xylazine (Rompun2% 20 mg/Kg Bayer) prior to injury. Animals were hydrated and treated with analgesic (Buprenorphin Axience 0.3 mg/kg) twice a day for 4 d following injury. For the injury, mice were anesthetized as previously described and 10 μl of 12.5 μg/ml Notexin (Lotaxan) was injected in the Tibialis anterior. All protocols were reviewed by the Institut Pasteur, the competent authority, for compliance with the French and European regulations on Animal Welfare and with Public Health Service recommendations. This project has been reviewed and approved (#2013-0044) by the Institut Pasteur ethic committee (C2EA 89-CETEA).
as §1, §2
For image analysis (fibrosis quantification), ImageJ 1.46r software was using between 10 different photos randomly taken per section and 3 sections minimum per experimental group. The pictures were converted in a binary image and the pixel values then collected. For fibre size, the sections were immunostained with rabbit anti Laminin (Sigma-Aldrich #L9393) diluted at 1/200, overnight at 4° C. Secondary Donkey ant Rabbit 488 (DL488 JacksonImmuno #711486152) were used at 1/200 45 minutes at room temperature. The fibre perimeter was done automatically by using Pixcavator® software.

satellite cells [2] = test: Satellite cell (SC) number in tibialis anterior of treated mice (histological count or FACS cytometry); format: in vivo, mouse; conditions: for Number of SC: Tg:Pax7nGFP mice
[3] = fluoxetine P.O. 6 weeks, Mdx mice
[4] = 20% plasma from fluoxetine treated C57Bl/6 mice, live-videomicroscopy
[5] = notexin injury after fluoxetine treatment

In the case of CNCCC(Oc1ccc(C(F)(F)F)cc1)c1ccccc1 (stereo not shown) [fluoxetine], the Fiber size (Mdx mice; [3]) is reported as 4.241±0.9 pixels, the Foci of necrotic fiber (necrotic area) (Mdx mice; [3]) is reported as 2890 ± 803 µm² and the “Gr1+ cells in the muscle” value (Mdx mice; [3]) is reported as 4±2.4 cells per section. For the same compound, the “Number of cycling satellite cells vs placebo” value (Mdx mice; [3]) was “decreased”, the “Number of regenerating foci vs placebo” value (Mdx mice; [3]) was “decreased” and the Number of vessels (Mdx mice; [3]) was 1459±327 vessels per mm^2. For the same compound, the “Myogenine positive cells 4 days post-plating” value (satellite cells [1]; 20% plasma from fluoxetine treated C57Bl/6 mice) was 34.75±6.3 % of total plated cells, the Division rate (satellite cells [1]; [4]) was 8.7 ± 0.7 h and the “First satellite cells division, time post-plating” value (satellite cells [1]; [4]) was 26.45 h. The “Pax7 positive cells 4 days post-plating” value (satellite cells [1]; plasma from fluoxetine treated animals) was 24%, the “Reserve cells (quiescent Pax7 positive cells) 14 days post-plating” value (satellite cells [1]) was 9.4% and the “Myogenin (MyoG) expression increase” value (satellite cells [1]; plasma from fluoxetine-treated mice vs placebo) was 3 times increase. The “MyoD (activation marker) expression between conditions” value (satellite cells [1]; plasma from fluoxetine-treated mice vs placebo vs GR127935) was “did differ at any time investigated”, the “Calcium deposits 14 days post-injury” value (Tibialis anterior; [5]) was 3.2±3 per mm^2 and the “Differentiating (Myogenin+) cells 4 days post-injury vs placebo” value (Tibialis anterior; [5]) was “more cells were already differentiating”. The “Endomysial fibrosis 14 days post-injury” value (Tibialis anterior; [5]) was 2.2±0.7 % of total muscle area, the “F4/80 inflammatory cells 14 days post-injury” value (Tibialis anterior; [5]) was 4.7±2.7 cells per section and the “Gr1+ inflammatory cells 14 days post-injury” value (Tibialis anterior; [5]) was 4.1±2.6 cells per section. The “Number of fibers 14 days post-injury vs placebo” value (Tibialis anterior; [5]) was “remained the same”, the “Regenerating fiber size 14 days post-injury” value (Tibialis anterior; [5]) was 129±12.6 μm^2 and the “Number of SC 4 days post-injury” value (Tibialis anterior; notexin injury after fluoxetine treatment, Tg:Pax7nGFP mice) was 459±283 per mm^2. The “Number of vessels 28 days post-injury vs placebo” value (Tibialis anterior; notexin injury after fluoxetine treatment, p=0.036) was “higher”, the “Number of SC 28 days post-injury vs placebo” value (Tibialis anterior; notexin injury after fluoxetine treatment, p=0.076) was “higher” and the “Number of SC per TA after 3 rounds of injury” value (Tibialis anterior; several rounds of injury after fluoxetine treatment) was “remained constant”. For the same compound, the “Number of SC by histological count” value (satellite cells [2]; fluoxetine 18 mg/kg, tibialis anterior, TgPax7nGFP mouse) was 16.3±5.4 SC per mm^2 and the “Number of SC” value (satellite cells [2]; fluoxetine P.O 6 weeks and PBS in osmotic pump) was 7283±2325 SC per TA.

For COc1ccc(NC(=O)c2ccc(-c3ccc(-c4noc(C)n4)cc3C)cc2)cc1N1CCN(C)CC1 [GR127935], the “Beneficial effects of fluoxetine when co-treated with 5-HT1B inhibitor” value (Mdx mice; Mdx mice treated with fluoxetine and a 5-HT1B inhibitor) was “the beneficial effects were lost”, the “Pax7 positive cells 4 days post-plating” value (satellite cells [1]; plasma from fluoxetine treated animals incubated with GR127935) was 35.25% and the “Reserve cells (quiescent Pax7 positive cells) 14 days post-plating” value (satellite cells [1]; GR127935 added in vitro) was 4.5%. The “MyoG expression difference when plated with GR127935” value (satellite cells [1]; plasma from fluoxetine-treated mice plus GR127935) was “lost”, the “Faster exit of quiescence and higher division rates when adding GR127935” value (satellite cells [1]; plasma from fluoxetine-treated mice plus GR127935 in vitro) was “lost” and the “Effect of the antagonist on the beneficial effects of fluoxetine after injury” value (Tibialis anterior; antagonist together with fluoxetine, SC, differentiating cells, fiber size, calcium deposits, fibrosis, Gr1 and F4/80 cells) was “suppressed the beneficial effects of fluoxetine treatment”. For the same compound, the “Effect of GR127935 on the beneficial effects of vortioxetine after injury” value (Tibialis anterior; vortioxetine 12 days-treatment plus GR127935, SC, differentiating cells, fiber size, calcium deposits, fibrosis, Gr1 and F4/80 cells) was “repressed the beneficial effects of the vortioxetine 12 days-treatment” and the “Number of SC” value (satellite cells [2]; GR127935 in osmotic pump together with fluoxetine P.O 6 weeks) was 4674±1414 SC per TA.
